Experimental data published in US20240287110A1, “PHOSPHATE OF TRIFLUOROMETHYL-SUBSTITUTED SULFONAMIDE COMPOUND” (CHIA TAI TIANQING PHARMACEUTICAL GROUP CO., LTD., priority 2021, published 2024).
≈ marks a conversion by molar mass, not a printed value.

Tests used:
BCL-2/BAK = target: T1, BCL-2/BAK (Homo sapiens, UniProt P10415); assay: Screening on inhibitory activity for BCL-2/BAK binding (Cisbio HTRF kit); settings: Tag1-BCL-2 / Tag2-BAK binding, 25° C.
T1 construct: purchased Cisbio 63ADK000CB01PEH
T1 sequence (P10415 whole entry, species assumed): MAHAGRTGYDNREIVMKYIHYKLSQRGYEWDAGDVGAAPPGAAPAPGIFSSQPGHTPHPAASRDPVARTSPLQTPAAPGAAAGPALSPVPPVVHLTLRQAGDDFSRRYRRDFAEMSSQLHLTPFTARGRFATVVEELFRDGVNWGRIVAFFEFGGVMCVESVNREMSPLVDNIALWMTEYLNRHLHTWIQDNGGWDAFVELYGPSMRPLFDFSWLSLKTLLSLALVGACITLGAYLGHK
Procedure: A 500 nM Tag1-BCL-2 protein stock solution and a 20 μM Tag2-BAK protein stock solution were diluted to 5 nM and 120 nM respectively with a dilution buffer in a kit (manufacturer: Cisbio, Cat. No.: 63ADK000CB01PEH). […] of Tag1-BCL-2 protein diluent was added to each well, and then different compounds dissolved in DMSO were added to the wells using a nanoliter pipettor, allowing the final compound concentrations to be 200 nM to 0.0488 nM (4-fold gradient for 7 concentrations in total). Blank control wells (without enzyme) and negative control wells (with enzyme, plus vehicle DMSO) were set, and 2 replicate wells were set. Finally, 5 μL of Tag2-BAK protein diluent was added to each well, and the mixture was mixed well by centrifugation and incubated at 25° C. for 15 min. 100× anti-Tag1-Eu^3+ and 100× anti-Tag2-XL665 were both diluted to 1× working concentration with a detection buffer in the kit. Anti-Tag1-Eu^3+ and anti-Tag2-XL665 were mixed well in a 1:1 ratio, and 5 μL of the mixture was added to each well. The resulting mixture was incubated at 25° C. for 2 h or more. The plate was read using a PE Envision multi-functional microplate reader (excitation: 620 nm, emission: 665 nm), and IC50 (shown in Table 1) was calculated by four-parameter fitting.

BCL-XL/BAK = target: T2, BCL-XL/BAK (Homo sapiens, UniProt Q07817); assay: Screening on inhibitory activity for BCL-XL/BAK binding (Cisbio HTRF kit); settings: Tag1-BCL-XL / Tag2-BAK binding, 25° C.
T2 construct: purchased Cisbio 63ADK000CB04PEH
T2 sequence (Q07817 whole entry, species assumed): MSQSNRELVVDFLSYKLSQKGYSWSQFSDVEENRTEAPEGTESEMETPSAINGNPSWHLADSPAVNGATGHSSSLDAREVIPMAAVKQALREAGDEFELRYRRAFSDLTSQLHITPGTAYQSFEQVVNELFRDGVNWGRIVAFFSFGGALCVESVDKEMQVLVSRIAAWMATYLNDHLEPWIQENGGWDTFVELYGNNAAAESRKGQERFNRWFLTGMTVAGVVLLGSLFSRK
Procedure: A 300 nM Tag1-BCL-XL protein stock solution and a 10 μM Tag2-BAK protein stock solution were diluted to 2 nM and 80 nM respectively with a dilution buffer in a kit (manufacturer: Cisbio, Cat. No.: 63ADK000CB04PEH). 5 μL of Tag1-BCL-XL protein diluent was added to each well, and then different compounds dissolved in DMSO were added to the wells using a nanoliter pipettor, allowing the final compound concentrations to be 2000 nM to 0.488 nM (4-fold gradient for 7 concentrations in total). Blank control wells (without enzyme) and negative control wells (with enzyme, plus vehicle DMSO) were set, and 2 replicate wells were set. Finally, 5 μL of Tag2-BAK protein diluent was added to each well, and the mixture was mixed well by centrifugation and incubated at 25° C. for 15 min. 100× anti-Tag1-Eu^3+ and 100× anti-Tag2-XL665 were both diluted to 1× working concentration with a detection buffer in the kit. Anti-Tag1-Eu^3+ and anti-Tag2-XL665 were mixed well in a 1:1 ratio, and 5 μL of the mixture was added to each well. The resulting mixture was incubated at 25° C. for 2 h or more. The plate was read using a PE Envision multi-functional microplate reader (excitation: 620 nm, emission: 665 nm), and IC50 (shown in Table 1) was calculated by four-parameter fitting.

RS4; 11 cells = assay: Inhibitory effect on proliferation of RS4; 11 cells (CCK-8); format: cell-based; settings: Homo sapiens, 72 h, CCK-8, 5% serum
Procedure: RS4; 11 cells in logarithmic growth phase and good cell condition were added to a centrifuge tube and centrifuged at 1500 rpm for 3 min in a low speed centrifuge. The supernatant was discarded, and 5 mL of complete medium (RPMI basic medium+10% FBS) was added using a pipette for cell resuspension. The cells were counted using a cell counter and diluted with complete medium to a cell density of 2×10^5 cells/mL, and then an equivalent amount of RPMI basic medium was added to adjust the serum concentration to 5% and the cell density to 1×10^5 cells/mL for plate seeding. The cells were seeded on a 96-well plate at […] using a multi-channel pipette and cultured in a cell incubator at 37° C., 5% CO2 with saturated humidity. After 24 h of incubation, compounds (500-0.1 nM) were loaded using a nanoliter pipettor, 2 replicate wells were set for each concentration, and cells without compound were used as negative controls. After 72 h, CCK-8 was added at 10 μL/well for incubation for 4 h, then absorbance was measured at 450 nm with an Envision plate reader, and inhibition rate was calculated. […] A dose-response curve was fitted by four-parameter analysis, with the logarithm of compound concentration as abscissa and inhibition rate as ordinate, so that IC50 was calculated (see Table 2).

[1] = Determination of solubility in water at pH 7.4; format: physicochemical; settings: aqueous phosphate medium, aqueous buffer, thermodynamic from solid; pH 7.4, 25° C.
Procedure: Reagents used were 0.2 M NaOH (SinoPharm lot No. 20180223) and 0.2 M phosphate (SinoPharm 20180910, pH 7.4). Instruments/equipment used included a balance (HPLC Dionex U3000, Mettler XPE105DR), pipettes (TIANBO 0.5 mL and 0.1 mL), a thermostatic CNC shaker (ZWY-240, set at 25° C. and 200 rpm).
The example compounds were tested in an aqueous medium at 25° C. An excess of each example compound was weighed out and mixed with an aliquot of the target medium in a clear glass vial. The vial was sealed with a cap and then shaken in the shaker at 25° C. as appropriate. When equilibration was completed, the sample was removed from the shaker and the final pH was measured. The suspension was filtered through a 13 mm needle-type filter and a 0.22 m Syring Filter needle-type filter (hydrophilic PTFE-SA membrane, lot No. HKS13SATQ2B). Each filter was used for only one sample. The determination was carried out after the filtrate had been suitably diluted with the same solvent as used for the stock solution. The concentration of the sample was calculated based on a calibration curve of the compound.

IC50 (BCL-2/BAK) [nM]	IC50 (BCL-XL/BAK) [nM]	IC50 (RS4; 11 cells) [nM]	solubility [1] [mg/mL]	SMILES
3	328	15.9	19.4 (≈ 18.5 mM)	CC1(C)CCC(CN2CCN(c3ccc(C(=O)NS(=O)(=O)c4ccc(NC[C@H]5COCCO5)c([N+](=O)[O-])c4)c(Oc4cc5ccnc-5n(COP(=O)(O)O)c4)c3)CC2)=C(c2ccc(C(F)(F)F)cc2Cl)C1 [Example 1]
2.9	251	14.8	2.23 (≈ 2.17 mM)	Cc1cc(C(F)(F)F)ccc1C1=C(CN2CCN(c3ccc(C(=O)NS(=O)(=O)c4ccc(NC[C@H]5COCCO5)c([N+](=O)[O-])c4)c(Oc4cc5ccnc-5n(COP(=O)(O)O)c4)c3)CC2)CCC(C)(C)C1 [Example 2]
